Reference: PubChem BioAssay (NCI)
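Interpolation was linear, between the two tested concentrations surrounding the appropriate level; five concentrations were tested over 48 hours in 96-well plates. At the GI50, growth is halved. Definition used: TGI = concentration required for complete inhibition of growth.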

Legend:
Assay in all cases: NCI-60 cell line screen, 48 h
[1] = test system: LOX IMVI melanoma
[2] = test system: MALME-3M melanoma
[3] = test system: A498 renal
[4] = test system: SW-620 colon
[5] = test system: SK-MEL-28 melanoma
[6] = test system: SF-295 CNS
[7] = test system: 786-0 renal
[8] = test system: HL-60(TB) leukemia
[9] = test system: NCI/ADR-RES ovarian
[10] = test system: BT-549 breast

For `Cc1c(C(=O)/C=C/c2ccc([N+](=O)[O-])cc2)[n+](=O)c2ccccc2n1[O-]`, the TGI [1] was > 100 µM, the TGI [2] was > 100 µM and the TGI [3] was > 100 µM. The TGI [4] was > 100 µM, the TGI [5] was > 100 µM and the TGI [6] was > 100 µM. For the same molecule, the TGI [7] was > 100 µM and the TGI [8] was 2.89 µM.

Molecule `O=C(CCl)N1CCN(c2ccccn2)CC1` has a TGI [2] of 31.8 µM, a TGI [3] of 31.4 µM and a TGI [4] of 51.6 µM. For the same molecule, the TGI [9] was 57.7 µM, the TGI [5] was 41.6 µM and the TGI [6] was > 10 µM. It also gave a TGI [7] of 35.1 µM and a TGI [8] of 49.6 µM.

In the case of `c1ccc(-c2sc(-c3ccccc3)c3c2C(c2ccccc2)c2c(-c4ccccc4)sc(-c4ccccc4)c2C3c2ccccc2)cc1` (stereo not given), the TGI [1] is reported as > 100 µM, the TGI [2] is reported as > 100 µM and the TGI [3] is reported as > 100 µM. For the same molecule, the TGI [4] was > 100 µM, the TGI [5] was > 100 µM and the TGI [6] was > 100 µM. The TGI [7] was > 100 µM and the TGI [8] was > 100 µM.

For `O=c1[nH]c(-c2ccccc2)nc2cc([N+](=O)[O-])c(/C(Cl)=C/c3ccccc3)cc12`, the TGI [2] was > 100 µM, the TGI [4] was > 100 µM and the TGI [5] was > 100 µM. The TGI [6] was 53.5 µM and the TGI [7] was > 100 µM.

Molecule `[CH3][Ge]([CH3])([CH2]CC#N)[S]c1ccccc1` has a GI50 [1] of 4.36 µM, a TGI [1] of 16.9 µM and a GI50 [2] of 73.7 µM. The TGI [2] was > 100 µM, the GI50 [4] was 14.1 µM and the TGI [4] was 29.4 µM. The GI50 [5] was 16.5 µM, the TGI [5] was 65.1 µM and the GI50 [6] was 16.5 µM. It also gave a TGI [6] of 41.5 µM, a GI50 [7] of 17.1 µM and a TGI [7] of 32.8 µM. The GI50 [8] was 2.2 µM and the TGI [8] was 11.9 µM.

`C/C(=C\CNc1ncnc2c1ncn2C1CCCCO1)COP(=O)(O)O` (stereo not given) was tested, and the TGI [1] was > 100 µM, the TGI [2] was > 100 µM and the TGI [4] was > 100 µM. The TGI [5] was > 100 µM, the TGI [6] was > 100 µM and the TGI [7] was > 100 µM. For the same molecule, the TGI [8] was > 100 µM.

For `c1ccc(C2=Nc3ccccc3N3CNN=C23)cc1`, the GI50 [1] was > 100 µM, the TGI [1] was > 100 µM and the GI50 [2] was > 100 µM. The TGI [2] was > 100 µM, the GI50 [4] was > 100 µM and the TGI [4] was > 100 µM. For the same molecule, the GI50 [9] was > 100 µM, the TGI [9] was > 100 µM and the GI50 [6] was > 100 µM. The TGI [6] was > 100 µM, the GI50 [7] was > 100 µM and the TGI [7] was > 100 µM.

With `NNC(=O)N/N=C(/CC1(O)C(=O)Nc2ccc(Br)cc21)c1ccccc1` (stereo not given) the TGI [1] was 35.1 µM, the TGI [2] was > 100 µM and the TGI [4] was > 100 µM. For the same molecule, the TGI [5] was > 100 µM, the TGI [6] was > 100 µM and the TGI [7] was > 100 µM. The TGI [8] was 51.7 µM.

With `CCCN(CCCC(NC(C)=O)C(=O)NCc1ccccc1)C(=O)N(C)N=O` (stereo not given) the TGI [1] was > 100 µM, the TGI [2] was > 100 µM and the TGI [3] was > 100 µM. The TGI [4] was > 100 µM, the TGI [5] was > 100 µM and the TGI [6] was > 100 µM. The TGI [7] was > 100 µM.

With `O=C1C=C(Nc2cc(Cl)ccc2Cl)c2ccccc2C1=O` the TGI [2] was 39.4 µM, the TGI [3] was 52 µM and the TGI [4] was > 100 µM. The TGI [5] was > 100 µM, the TGI [6] was 79.3 µM and the TGI [7] was > 100 µM. For the same molecule, the TGI [8] was 40.9 µM.

In the case of `CCP(C)(=O)CC`, the TGI [1] is reported as > 100 µM, the TGI [2] is reported as > 100 µM and the TGI [4] is reported as > 100 µM. The TGI [5] was > 100 µM, the TGI [6] was > 100 µM and the TGI [7] was > 100 µM. For the same molecule, the TGI [8] was > 100 µM.

In the case of `CCOC(=O)C1(C)C2=CC=C(O2)C(C)(C)C2=CC=C(O2)C(C)(C)C2=CC=C(O2)C(C)(C)C2=CC=C1O2`, the TGI [1] is reported as > 100 µM, the TGI [2] is reported as > 100 µM and the TGI [3] is reported as > 100 µM. For the same molecule, the TGI [4] was > 100 µM, the TGI [5] was > 100 µM and the TGI [6] was > 100 µM. The TGI [7] was > 100 µM and the TGI [8] was > 100 µM.

`Cc1cc(NS(=O)(=O)c2ccc(NC(=O)c3cccc4c(Nc5ccc(S(=O)(=O)Nc6cc(C)on6)cc5)c5ccc(Cl)cc5nc34)cc2)no1` was tested, and the TGI [1] was > 100 µM, the TGI [2] was > 100 µM and the TGI [3] was > 100 µM. For the same molecule, the TGI [4] was > 100 µM, the TGI [5] was > 100 µM and the TGI [6] was > 100 µM. The TGI [7] was > 100 µM and the TGI [8] was > 100 µM.

In the case of `CCN1C[C@@H](C)n2c(c(O)c3c(=O)n(Cc4ccc(F)c(Cl)c4)nc(C(=O)NC)c32)C1=O`, the GI50 [1] is reported as 3.13 µM, the TGI [1] is reported as 18 µM and the GI50 [2] is reported as 2.75 µM. The TGI [2] was 8.07 µM, the GI50 [3] was 1.43 µM and the TGI [3] was 4.55 µM. For the same molecule, the GI50 [4] was 3.11 µM, the TGI [4] was > 100 µM and the GI50 [9] was 1.62 µM. It also gave a TGI [9] of 7.79 µM, a GI50 [5] of 2.69 µM and a TGI [5] of 7.17 µM. For the same molecule, the GI50 [6] was 2.88 µM, the TGI [6] was > 100 µM and the GI50 [7] was 2.91 µM. For the same molecule, the TGI [7] was 8.4 µM, the GI50 [10] was 3.49 µM and the TGI [10] was > 100 µM.

`O=C(CC(=O)N1N=C(n2ccc3ccccc32)CC1c1ccccc1)Nc1ccccc1Cl` (stereo not given) was tested, and the TGI [1] was > 100 µM, the TGI [2] was > 100 µM and the TGI [3] was > 100 µM. For the same molecule, the TGI [4] was > 100 µM, the TGI [5] was > 100 µM and the TGI [6] was > 100 µM. For the same molecule, the TGI [7] was > 100 µM and the TGI [8] was > 100 µM.

`O=C1NC(c2cccc3ccccc23)Nc2ccc(Cl)cc21` (stereo not given) gave a TGI [1] of 14.6 µM, a TGI [2] of 37.7 µM and a TGI [4] of 17.2 µM. It also gave a TGI [9] of 0.0115 µM, a TGI [5] of 20.6 µM and a TGI [6] of 0.0232 µM. It also gave a TGI [7] of 23.1 µM and a TGI [8] of 0.000441 µM.
